The values that follow come from ChEMBL document CHEMBL5728584, “Bicyclic amide compounds and methods of use thereof” (2021).

For orientation: Ki means a dissociation constant, usually derived from enzyme kinetics or from competition with a known ligand. Lower therefore signals higher affinity.

The assay has as its target T1, Receptor-interacting serine/threonine-protein kinase 1 (Homo sapiens, UniProt Q13546).
T1 sequence (Q13546 whole entry): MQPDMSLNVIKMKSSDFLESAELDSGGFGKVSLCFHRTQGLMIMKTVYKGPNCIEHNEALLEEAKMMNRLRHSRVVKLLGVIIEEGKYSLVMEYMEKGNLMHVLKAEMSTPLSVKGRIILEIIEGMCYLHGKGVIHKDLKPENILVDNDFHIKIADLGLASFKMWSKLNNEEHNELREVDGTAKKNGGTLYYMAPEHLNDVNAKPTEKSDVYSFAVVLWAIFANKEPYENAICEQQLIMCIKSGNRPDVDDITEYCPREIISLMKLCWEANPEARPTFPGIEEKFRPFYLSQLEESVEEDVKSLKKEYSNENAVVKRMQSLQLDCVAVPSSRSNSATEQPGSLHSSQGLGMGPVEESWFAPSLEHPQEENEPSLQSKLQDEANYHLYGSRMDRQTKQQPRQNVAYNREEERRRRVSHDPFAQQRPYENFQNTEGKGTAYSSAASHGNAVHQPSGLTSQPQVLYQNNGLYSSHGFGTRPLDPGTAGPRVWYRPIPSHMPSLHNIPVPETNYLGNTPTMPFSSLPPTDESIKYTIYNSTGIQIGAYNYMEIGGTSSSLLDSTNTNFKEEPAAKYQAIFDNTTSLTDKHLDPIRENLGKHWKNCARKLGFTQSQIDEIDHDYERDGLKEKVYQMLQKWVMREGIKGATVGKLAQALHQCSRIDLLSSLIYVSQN
The experiment in a line: Biochemical Assay: The ability of the receptor interacting protein kinase (RIPK1) to catalyze the hydrolysis of adenosine-5′-triphosphate (ATP) is monitored using the Transcreener ADP (adenosine-5′-diphosphate) assay (BellBrook Labs). Purified human RIP1 kinase domain (2-375) (50 nM) derived from a baculovirus-infected insect cell expression system is incubated with test compounds for 2 hours in 50 mM Hepes buffer (pH 7.5) containing 30 mM MgCl2, 1 mM dithiothreitol, 50 uM ATP, 0.002% Brij-35, and 0.5% dimethyl sulfoxide (DMSO). Reactions are quenched by the addition of 1× Bell Brooks Stop buffer B (20 mM Hepes (ph7.5), 40 mM ethylenediaminetetraacetic acid and 0.02% Brij-35) containing an additional 12 mM EDTA and 55 ug/mL ADP2 antibody and 4 nM ADP-AlexaFluor® 633 tracer. The tracer bound to the antibody is displaced by the ADP generated during the RIP1K reaction, which causes a decrease in fluorescence polarization that is measured by laser excitation at 633 nm with a FP microplate reader M1000. (Fluorescence polarisation rises when a labelled molecule tumbles more slowly, as on binding a larger partner.)

`O=C(c1nc2n(n1)CCOC2c1ccccc1)N1CC(F)C1` (racemic) displayed an inhibitory constant (Ki) of 2.1 µM.
